Earlier results on 1 compound are cited in patent US20150284900A1, “Novel Activator for Hydrogen Peroxide and Its Application” (priority 2014, published 2015).

The structures appear in SMILES notation.

For this data set the following is noted: in water; room temperature (20° C.).

Turning to `OO` [Activator H2O2, Hydrogen peroxide], the ionization constant is 1.78×10^−12.
